Measured values taken from ChEMBL document CHEMBL4507258 (2021).

Experiments:
[1] = system: Tyrosine-protein kinase ABL1 (Homo sapiens), P00519 [T315I]; settings: Compound concentration 1000.0 nM
[2] = target: Activin receptor type-1B (Homo sapiens) (UniProt P36896); settings: Compound concentration 1000.0 nM
[3] = target: 5'-AMP-activated protein kinase catalytic subunit alpha-2 (Homo sapiens) (UniProt P54646); settings: Compound concentration 1000.0 nM
[4] = target: Serine/threonine-protein kinase B-raf (Homo sapiens) (UniProt P15056); settings: Compound concentration 1000.0 nM
[5] = target: Tyrosine-protein kinase CSK (Homo sapiens) (UniProt P41240); settings: Compound concentration 1000.0 nM
[6] = target: Casein kinase I isoform gamma-3 (Homo sapiens) (UniProt Q9Y6M4); settings: Compound concentration 1000.0 nM
Chain of Casein kinase I isoform gamma-3 (Homo sapiens) (Q9Y6M4 whole entry, looked up, canonical isoform): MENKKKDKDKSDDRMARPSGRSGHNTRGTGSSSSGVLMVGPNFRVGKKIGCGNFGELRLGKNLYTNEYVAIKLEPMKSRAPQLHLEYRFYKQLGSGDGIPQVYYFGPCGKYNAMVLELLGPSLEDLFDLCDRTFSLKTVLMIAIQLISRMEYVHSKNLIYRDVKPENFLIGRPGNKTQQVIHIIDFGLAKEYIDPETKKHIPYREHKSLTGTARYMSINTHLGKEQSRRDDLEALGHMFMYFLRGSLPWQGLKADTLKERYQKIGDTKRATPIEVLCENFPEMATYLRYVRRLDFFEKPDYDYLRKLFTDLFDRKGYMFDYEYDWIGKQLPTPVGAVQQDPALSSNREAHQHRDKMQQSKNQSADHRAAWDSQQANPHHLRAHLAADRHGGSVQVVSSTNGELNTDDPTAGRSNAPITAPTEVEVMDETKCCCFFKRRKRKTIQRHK

[7] = target: Serine/threonine-protein kinase DCLK3 (Homo sapiens) (UniProt Q9C098); settings: Compound concentration 1000.0 nM
[8] = target: Ephrin type-A receptor 1 (Homo sapiens) (UniProt P21709); settings: Compound concentration 1000.0 nM
[9] = target: Ephrin type-A receptor 2 (Homo sapiens) (UniProt P29317); settings: Compound concentration 1000.0 nM
[10] = target: Ephrin type-A receptor 7 (Homo sapiens) (UniProt Q15375); settings: Compound concentration 1000.0 nM
[11] = target: Vascular endothelial growth factor receptor 1 (Homo sapiens) (UniProt P17948); settings: Compound concentration 1000.0 nM
[12] = target: Receptor-type tyrosine-protein kinase FLT3 (Homo sapiens) (UniProt P36888); settings: Compound concentration 1000.0 nM
[13] = target: Tyrosine-protein kinase FRK (Homo sapiens) (UniProt P42685); settings: Compound concentration 1000.0 nM
Chain of Tyrosine-protein kinase FRK (Homo sapiens) (P42685 whole entry): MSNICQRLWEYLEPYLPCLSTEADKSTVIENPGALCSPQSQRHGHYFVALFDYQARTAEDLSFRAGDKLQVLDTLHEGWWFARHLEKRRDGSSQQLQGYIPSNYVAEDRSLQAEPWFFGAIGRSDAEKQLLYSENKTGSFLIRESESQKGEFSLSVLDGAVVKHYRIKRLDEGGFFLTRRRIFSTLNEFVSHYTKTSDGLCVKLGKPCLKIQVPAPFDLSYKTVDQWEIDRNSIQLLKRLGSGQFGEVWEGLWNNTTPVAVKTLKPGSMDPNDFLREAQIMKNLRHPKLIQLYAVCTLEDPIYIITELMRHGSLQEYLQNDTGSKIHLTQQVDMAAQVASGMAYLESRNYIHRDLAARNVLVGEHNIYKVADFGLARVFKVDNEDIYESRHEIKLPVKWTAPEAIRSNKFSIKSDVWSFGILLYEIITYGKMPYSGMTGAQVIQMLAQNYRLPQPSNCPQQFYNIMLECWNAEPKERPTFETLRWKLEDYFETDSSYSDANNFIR

[14] = target: Tyrosine-protein kinase Fyn (Homo sapiens) (UniProt P06241); settings: Compound concentration 1000.0 nM
[15] = target: Homeodomain-interacting protein kinase 2 (Homo sapiens) (UniProt Q9H2X6); settings: Compound concentration 1000.0 nM
[16] = target: Homeodomain-interacting protein kinase 3 (Homo sapiens) (UniProt Q9H422); settings: Compound concentration 1000.0 nM
[17] = target: Inhibitor of nuclear factor kappa-B kinase subunit beta (Homo sapiens) (UniProt O14920); settings: Compound concentration 1000.0 nM
[18] = target: Interleukin-1 receptor-associated kinase 4 (Homo sapiens) (UniProt Q9NWZ3); settings: Compound concentration 1000.0 nM
[19] = target: Tyrosine-protein kinase Lyn (Homo sapiens) (UniProt P07948); settings: Compound concentration 1000.0 nM
[20] = target: Mitogen-activated protein kinase kinase kinase kinase 3 (Homo sapiens) (UniProt Q8IVH8); settings: Compound concentration 1000.0 nM
[21] = target: Mitogen-activated protein kinase kinase kinase kinase 4 (Homo sapiens) (UniProt O95819); settings: Compound concentration 1000.0 nM
[22] = target: Mitogen-activated protein kinase kinase kinase kinase 5 (Homo sapiens) (UniProt Q9Y4K4); settings: Compound concentration 1000.0 nM
[23] = target: MAP/microtubule affinity-regulating kinase 3 (Homo sapiens) (UniProt P27448); settings: Compound concentration 1000.0 nM
[24] = target: MAP/microtubule affinity-regulating kinase 4 (Homo sapiens) (UniProt Q96L34); settings: Compound concentration 1000.0 nM
Chain of MAP/microtubule affinity-regulating kinase 4 (Homo sapiens) (Q96L34 whole entry): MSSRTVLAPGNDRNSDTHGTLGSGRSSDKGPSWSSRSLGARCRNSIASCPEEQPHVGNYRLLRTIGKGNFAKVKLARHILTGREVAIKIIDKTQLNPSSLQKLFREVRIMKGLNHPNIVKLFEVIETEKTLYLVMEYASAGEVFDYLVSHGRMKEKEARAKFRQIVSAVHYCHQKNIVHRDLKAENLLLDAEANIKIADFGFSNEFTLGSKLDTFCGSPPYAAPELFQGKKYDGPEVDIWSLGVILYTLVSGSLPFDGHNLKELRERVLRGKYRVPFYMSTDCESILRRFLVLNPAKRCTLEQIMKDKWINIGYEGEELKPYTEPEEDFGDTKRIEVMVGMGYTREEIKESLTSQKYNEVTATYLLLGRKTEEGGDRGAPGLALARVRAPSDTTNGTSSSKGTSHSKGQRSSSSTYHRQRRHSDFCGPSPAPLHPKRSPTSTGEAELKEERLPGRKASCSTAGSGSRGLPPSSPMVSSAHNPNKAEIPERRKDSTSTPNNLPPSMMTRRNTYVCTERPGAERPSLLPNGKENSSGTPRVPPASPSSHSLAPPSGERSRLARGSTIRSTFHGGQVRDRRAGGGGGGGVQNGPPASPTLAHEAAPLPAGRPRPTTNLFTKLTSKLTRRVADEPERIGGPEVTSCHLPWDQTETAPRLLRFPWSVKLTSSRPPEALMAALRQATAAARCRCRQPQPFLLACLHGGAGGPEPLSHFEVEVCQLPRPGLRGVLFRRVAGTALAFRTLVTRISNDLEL

[25] = target: Serine/threonine-protein kinase MRCK beta (Homo sapiens) (UniProt Q9Y5S2); settings: Compound concentration 1000.0 nM
Chain of Serine/threonine-protein kinase MRCK beta (Homo sapiens) (Q9Y5S2 whole entry): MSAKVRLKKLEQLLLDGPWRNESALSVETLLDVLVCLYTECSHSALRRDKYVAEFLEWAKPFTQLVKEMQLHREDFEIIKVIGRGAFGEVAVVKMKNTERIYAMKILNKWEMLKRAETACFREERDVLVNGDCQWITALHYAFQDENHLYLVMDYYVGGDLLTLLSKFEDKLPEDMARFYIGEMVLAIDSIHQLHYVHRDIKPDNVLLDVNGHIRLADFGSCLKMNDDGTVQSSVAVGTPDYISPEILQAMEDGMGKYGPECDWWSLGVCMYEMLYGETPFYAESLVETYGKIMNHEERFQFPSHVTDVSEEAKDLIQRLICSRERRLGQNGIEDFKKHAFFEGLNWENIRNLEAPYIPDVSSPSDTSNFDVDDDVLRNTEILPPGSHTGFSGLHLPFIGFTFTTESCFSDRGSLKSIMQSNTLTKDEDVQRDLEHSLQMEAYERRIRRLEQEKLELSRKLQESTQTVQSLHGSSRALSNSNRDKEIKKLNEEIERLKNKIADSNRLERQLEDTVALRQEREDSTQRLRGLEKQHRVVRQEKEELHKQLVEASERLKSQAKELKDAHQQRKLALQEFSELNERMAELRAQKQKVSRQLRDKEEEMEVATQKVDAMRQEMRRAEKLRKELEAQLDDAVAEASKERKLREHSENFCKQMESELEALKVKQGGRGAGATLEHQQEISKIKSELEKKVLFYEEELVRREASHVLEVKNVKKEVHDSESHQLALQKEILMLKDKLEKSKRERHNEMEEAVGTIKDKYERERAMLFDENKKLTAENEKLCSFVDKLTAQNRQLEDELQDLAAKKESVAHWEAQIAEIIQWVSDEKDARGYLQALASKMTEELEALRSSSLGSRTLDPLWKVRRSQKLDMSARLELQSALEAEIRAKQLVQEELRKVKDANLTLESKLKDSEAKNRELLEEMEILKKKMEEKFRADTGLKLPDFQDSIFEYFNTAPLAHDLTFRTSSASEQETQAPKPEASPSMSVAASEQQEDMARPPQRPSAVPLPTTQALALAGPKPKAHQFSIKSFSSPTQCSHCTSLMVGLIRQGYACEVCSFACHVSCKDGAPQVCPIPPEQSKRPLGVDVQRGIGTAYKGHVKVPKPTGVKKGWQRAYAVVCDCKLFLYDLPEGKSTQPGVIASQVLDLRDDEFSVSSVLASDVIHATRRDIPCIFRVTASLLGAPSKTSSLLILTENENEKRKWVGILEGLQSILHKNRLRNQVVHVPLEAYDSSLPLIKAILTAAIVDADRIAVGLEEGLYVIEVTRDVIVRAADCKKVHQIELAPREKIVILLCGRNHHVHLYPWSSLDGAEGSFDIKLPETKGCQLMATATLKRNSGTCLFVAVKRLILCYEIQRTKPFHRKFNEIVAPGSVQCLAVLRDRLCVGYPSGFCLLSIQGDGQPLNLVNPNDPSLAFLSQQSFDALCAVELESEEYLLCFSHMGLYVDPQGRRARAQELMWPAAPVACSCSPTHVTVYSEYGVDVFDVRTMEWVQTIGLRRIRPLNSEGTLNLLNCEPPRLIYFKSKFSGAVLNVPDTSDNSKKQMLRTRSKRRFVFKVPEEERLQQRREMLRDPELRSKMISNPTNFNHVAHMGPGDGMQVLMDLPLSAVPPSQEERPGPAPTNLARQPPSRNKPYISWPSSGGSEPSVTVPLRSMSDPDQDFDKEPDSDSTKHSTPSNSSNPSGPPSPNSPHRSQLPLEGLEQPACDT

[26] = target: Serine/threonine-protein kinase Nek1 (Homo sapiens) (UniProt Q96PY6); settings: Compound concentration 1000.0 nM
[27] = target: Platelet-derived growth factor receptor alpha (Homo sapiens) (UniProt P16234); settings: Compound concentration 1000.0 nM
[28] = target: Phosphorylase b kinase regulatory subunit alpha, liver isoform (Homo sapiens) (UniProt P46019); settings: Compound concentration 1000.0 nM
Chain of Phosphorylase b kinase regulatory subunit alpha, liver isoform (Homo sapiens) (P46019 whole entry, canonical isoform): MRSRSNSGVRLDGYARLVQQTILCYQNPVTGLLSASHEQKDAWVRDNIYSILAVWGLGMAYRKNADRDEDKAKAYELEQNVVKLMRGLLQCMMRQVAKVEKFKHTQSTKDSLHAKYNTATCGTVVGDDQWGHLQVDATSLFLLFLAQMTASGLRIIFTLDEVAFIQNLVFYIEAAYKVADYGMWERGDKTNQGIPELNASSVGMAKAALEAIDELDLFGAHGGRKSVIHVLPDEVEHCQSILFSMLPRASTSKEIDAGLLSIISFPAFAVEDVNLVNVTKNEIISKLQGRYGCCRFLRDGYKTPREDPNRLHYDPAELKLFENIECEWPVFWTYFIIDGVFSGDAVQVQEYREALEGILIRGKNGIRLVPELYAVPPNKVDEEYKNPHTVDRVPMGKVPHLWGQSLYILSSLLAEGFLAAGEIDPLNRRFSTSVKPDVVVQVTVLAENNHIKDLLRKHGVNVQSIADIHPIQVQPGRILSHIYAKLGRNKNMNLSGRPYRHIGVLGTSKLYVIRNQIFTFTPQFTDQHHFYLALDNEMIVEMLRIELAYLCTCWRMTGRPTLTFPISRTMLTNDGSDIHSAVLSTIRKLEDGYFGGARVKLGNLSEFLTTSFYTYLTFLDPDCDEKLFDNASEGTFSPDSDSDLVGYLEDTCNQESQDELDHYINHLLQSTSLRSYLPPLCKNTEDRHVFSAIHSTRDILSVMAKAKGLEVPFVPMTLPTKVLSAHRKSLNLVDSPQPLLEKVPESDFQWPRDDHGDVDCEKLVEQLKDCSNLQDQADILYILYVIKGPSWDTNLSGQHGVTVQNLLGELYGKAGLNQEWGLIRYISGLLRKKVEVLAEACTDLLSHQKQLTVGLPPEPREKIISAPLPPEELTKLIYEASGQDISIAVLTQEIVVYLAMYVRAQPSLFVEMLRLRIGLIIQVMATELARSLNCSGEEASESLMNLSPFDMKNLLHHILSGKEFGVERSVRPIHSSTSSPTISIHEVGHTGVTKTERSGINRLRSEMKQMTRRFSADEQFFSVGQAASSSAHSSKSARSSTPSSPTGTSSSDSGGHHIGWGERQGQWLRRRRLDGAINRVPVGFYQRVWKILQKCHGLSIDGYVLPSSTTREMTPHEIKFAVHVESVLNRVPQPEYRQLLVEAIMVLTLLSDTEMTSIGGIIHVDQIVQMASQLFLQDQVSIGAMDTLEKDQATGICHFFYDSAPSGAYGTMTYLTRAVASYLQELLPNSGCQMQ

[29] = target: Phosphatidylinositol 4,5-bisphosphate 3-kinase catalytic subunit delta isoform (Homo sapiens) (UniProt O00329); settings: Compound concentration 1000.0 nM
[30] = target: Serine/threonine-protein kinase pim-1 (Homo sapiens) (UniProt P11309); settings: Compound concentration 1000.0 nM
[31] = target: Phosphatidylinositol 4-phosphate 5-kinase type-1 gamma (Homo sapiens) (UniProt O60331); settings: Compound concentration 1000.0 nM
[32] = target: Serine/threonine-protein kinase PLK2 (Homo sapiens) (UniProt Q9NYY3); settings: Compound concentration 1000.0 nM
[33] = target: Protein kinase C theta type (Homo sapiens) (UniProt Q04759); settings: Compound concentration 1000.0 nM
[34] = target: Serine/threonine-protein kinase D3 (Homo sapiens) (UniProt O94806); settings: Compound concentration 1000.0 nM
[35] = target: cAMP-dependent protein kinase catalytic subunit PRKX (Homo sapiens) (UniProt P51817); settings: Compound concentration 1000.0 nM
[36] = target: Serine/threonine-protein kinase RIO2 (Homo sapiens) (UniProt Q9BVS4); settings: Compound concentration 1000.0 nM
[37] = target: Ribosomal protein S6 kinase alpha-1 (Homo sapiens) (UniProt Q15418); settings: Compound concentration 1000.0 nM
[38] = target: Ribosomal protein S6 kinase alpha-3 (Homo sapiens) (UniProt P51812); settings: Compound concentration 1000.0 nM
[39] = target: NUAK family SNF1-like kinase 2 (Homo sapiens) (UniProt Q9H093); settings: Compound concentration 1000.0 nM
[40] = target: SNF-related serine/threonine-protein kinase (Homo sapiens) (UniProt Q9NRH2); settings: Compound concentration 1000.0 nM
[41] = target: Dual specificity testis-specific protein kinase 1 (Homo sapiens) (UniProt Q15569); settings: Compound concentration 1000.0 nM
[42] = target: TRAF2 and NCK-interacting protein kinase (Homo sapiens) (UniProt Q9UKE5); settings: Compound concentration 1000.0 nM
[43] = target: Testis-specific serine/threonine-protein kinase 1 (Homo sapiens) (UniProt Q9BXA7); settings: Compound concentration 1000.0 nM
Chain of Testis-specific serine/threonine-protein kinase 1 (Homo sapiens) (Q9BXA7 whole entry): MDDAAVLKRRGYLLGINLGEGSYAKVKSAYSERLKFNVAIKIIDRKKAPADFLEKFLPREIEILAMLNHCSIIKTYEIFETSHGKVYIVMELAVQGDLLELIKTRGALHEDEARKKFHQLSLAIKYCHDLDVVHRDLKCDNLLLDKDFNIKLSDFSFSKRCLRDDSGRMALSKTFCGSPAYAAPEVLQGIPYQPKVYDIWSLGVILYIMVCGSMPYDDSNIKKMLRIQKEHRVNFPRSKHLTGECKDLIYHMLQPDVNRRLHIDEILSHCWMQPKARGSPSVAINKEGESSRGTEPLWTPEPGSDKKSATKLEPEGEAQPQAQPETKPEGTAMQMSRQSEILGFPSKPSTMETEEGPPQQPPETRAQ

[44] = target: D(1A) dopamine receptor (Homo sapiens) (UniProt P21728); settings: Compound concentration 10.0 uM
[45] = target: Histamine H1 receptor (Homo sapiens, UniProt P35367); settings: Compound concentration 10.0 uM

CCCCN(CCCC)C(=O)CN1C[C@@H](c2cc(OC)c3c(c2)OCO3)[C@H](C(=O)O)[C@H]1CC(C)(C)CCC [A-545]
inactive: residual activity [1] 89.2% | residual activity [2] 96.4% | residual activity [3] 92.6% | residual activity [4] 92.3% | residual activity [5] 100% | residual activity [6] 100% | residual activity [7] 100% | residual activity [8] 85.5% | residual activity [9] 97.8% | residual activity [10] 100% | residual activity [11] 100% | residual activity [12] 97.4% | residual activity [13] 100% | residual activity [14] 99.1% | residual activity [15] 97.1% | residual activity [16] 100% | residual activity [17] 100% | residual activity [18] 94.5% | residual activity [19] 75.1% | residual activity [20] 94.1% | residual activity [21] 88.9% | residual activity [22] 100% | residual activity [23] 93.7% | residual activity [24] 93% | residual activity [25] 100% | residual activity [26] 100% | residual activity [27] 100% | residual activity [28] 100% | residual activity [29] 87% | residual activity [30] 91.7% | residual activity [31] 100% | residual activity [32] 98.4% | residual activity [33] 78.6% | residual activity [34] 100% | residual activity [35] 87.7% | residual activity [36] 83.2% | residual activity [37] 75.7% | residual activity [38] 85.4% | residual activity [39] 100% | residual activity [40] 98.4% | residual activity [41] 94.3% | residual activity [42] 86% | residual activity [43] 100% | inhibition [44] 16.6% | inhibition [45] 47.4%

CCCCN(CCCC)C(=O)CN1C[C@H](c2cc(OC)c3c(c2)OCO3)[C@@H](C(=O)O)[C@@H]1CC(C)(C)CCC [ABT-546]
active: inhibition [45] 53.6%
inactive: residual activity [1] 80.7% | residual activity [2] 96.4% | residual activity [3] 100% | residual activity [4] 90.4% | residual activity [5] 100% | residual activity [6] 100% | residual activity [7] 91.4% | residual activity [8] 92.6% | residual activity [9] 100% | residual activity [10] 100% | residual activity [11] 100% | residual activity [12] 76% | residual activity [13] 100% | residual activity [14] 100% | residual activity [15] 82.3% | residual activity [16] 100% | residual activity [17] 81.5% | residual activity [18] 67.5% | residual activity [19] 100% | residual activity [20] 100% | residual activity [21] 100% | residual activity [22] 100% | residual activity [23] 98.7% | residual activity [24] 98.3% | residual activity [25] 100% | residual activity [26] 100% | residual activity [27] 56.1% | residual activity [28] 100% | residual activity [29] 100% | residual activity [30] 100% | residual activity [31] 65.9% | residual activity [32] 67.1% | residual activity [33] 100% | residual activity [34] 90.2% | residual activity [35] 100% | residual activity [36] 65.3% | residual activity [37] 100% | residual activity [38] 54.9% | residual activity [39] 79.4% | residual activity [40] 100% | residual activity [41] 100% | residual activity [42] 100% | residual activity [43] 100% | inhibition [44] 4.66%
